One test deals with human Factor XIa (Homo sapiens (Human), UniProt P03951). Briefly: Factor XIa Assay (fluorogenic substrate GPR-AFC). Format: biochemical. As to conditions: Factor XIa (FXIa). As to the method:
(§1) The effectiveness of a compound of the present invention as an inhibitor of Coagulation Factor XIa can be determined using a relevant purified serine protease, and an appropriate synthetic substrate. The rate of hydrolysis of the chromogenic or fluorogenic substrate by the relevant serine protease was measured both in the absence and presence of compounds of the present invention. Assays were conducted at room temperature or at 37° C. […] A decrease in the rate of fluorescence change in the presence of inhibitor is indicative of enzyme inhibition. Such methods are known to one skilled in the art. The results of this assay are expressed as the half-maximal inhibitory concentrations (IC50), or the inhibitory constant, Ki.
Compounds were pre-incubated for 30 minutes at 25° C. with human (0.04 nM) Factor XIa in 50 mM HEPES buffer with 150 mM sodium chloride, 5 mM calcium chloride, 0.1% PEG 8000, pH 7.4. […] The % inhibition for each data point was calculated from the data and analyzed using the log (inhibitor) vs. response four parameters equation to determine the half-maximal inhibitory concentrations (IC50). The IC50 were converted to equilibrium inhibitory constants (Ki) using the Cheng-Prusoff equation.

For another test, the target named is Human plasma kallikrein (Homo sapiens (Human), UniProt P03952). Briefly: Kallikrein Assay (fluorogenic substrate Acetyl-K-P-R-AFC). The test is classed as biochemical. As to conditions: Plasma Kallikrein (PKal). The procedure: as §1, with “Kallikrein” for “Coagulation Factor XIa”
Sequence of Human plasma kallikrein (P03952 391-638): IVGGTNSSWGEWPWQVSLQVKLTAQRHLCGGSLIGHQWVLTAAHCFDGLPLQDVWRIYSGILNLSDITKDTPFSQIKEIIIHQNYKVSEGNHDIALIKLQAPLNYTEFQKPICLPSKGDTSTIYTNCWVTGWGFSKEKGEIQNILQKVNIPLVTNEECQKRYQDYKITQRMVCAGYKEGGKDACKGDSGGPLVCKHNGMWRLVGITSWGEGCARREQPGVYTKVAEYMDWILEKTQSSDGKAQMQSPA
Sequence of Human plasma kallikrein (P03952 20-390 partner): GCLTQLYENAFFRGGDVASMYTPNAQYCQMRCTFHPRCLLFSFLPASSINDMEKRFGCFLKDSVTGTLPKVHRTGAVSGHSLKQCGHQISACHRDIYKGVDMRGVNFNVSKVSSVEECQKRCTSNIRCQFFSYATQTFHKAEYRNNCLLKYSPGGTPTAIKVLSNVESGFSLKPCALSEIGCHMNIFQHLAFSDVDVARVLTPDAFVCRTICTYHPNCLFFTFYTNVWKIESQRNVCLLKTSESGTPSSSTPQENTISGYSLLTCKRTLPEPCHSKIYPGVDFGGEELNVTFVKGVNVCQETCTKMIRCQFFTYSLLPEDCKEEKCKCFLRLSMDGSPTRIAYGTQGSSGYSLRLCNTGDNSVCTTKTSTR
Kallikrein determinations were made in 50 mM HEPES buffer at pH 7.4 containing 150 mM NaCl, 5 mM CaC12, and 0.1% PEG 8000 (polyethylene glycol; Fisher Scientific). Determinations were made using purified Human plasma kallikrein at a final concentration of 0.5 nM (Enzyme Research Laboratories) and the synthetic substrate, Acetyl-K-P-R-AFC (Sigma # C6608) at a concentration of […].
Times required to achieve equilibration between enzyme and inhibitor were determined in control experiments. […] IC50 was determined by inflection point from a four parameter logistic curve fit. Ki was calculated using the Cheng Prusoff equation, Ki = IC50/(1+([S]/Km)).

Where only a bound is given, the exact number is not on record here.

Sequence of human Factor XIa (P03951 388-625 limits assumed): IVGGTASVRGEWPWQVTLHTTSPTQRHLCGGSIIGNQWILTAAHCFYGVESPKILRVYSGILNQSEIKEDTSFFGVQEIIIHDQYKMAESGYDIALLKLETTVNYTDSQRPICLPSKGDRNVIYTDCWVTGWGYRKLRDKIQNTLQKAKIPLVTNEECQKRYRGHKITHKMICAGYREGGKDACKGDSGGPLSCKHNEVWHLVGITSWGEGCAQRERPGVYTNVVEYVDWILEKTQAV
Sequence of human Factor XIa (P03951 19-387 partner limits assumed): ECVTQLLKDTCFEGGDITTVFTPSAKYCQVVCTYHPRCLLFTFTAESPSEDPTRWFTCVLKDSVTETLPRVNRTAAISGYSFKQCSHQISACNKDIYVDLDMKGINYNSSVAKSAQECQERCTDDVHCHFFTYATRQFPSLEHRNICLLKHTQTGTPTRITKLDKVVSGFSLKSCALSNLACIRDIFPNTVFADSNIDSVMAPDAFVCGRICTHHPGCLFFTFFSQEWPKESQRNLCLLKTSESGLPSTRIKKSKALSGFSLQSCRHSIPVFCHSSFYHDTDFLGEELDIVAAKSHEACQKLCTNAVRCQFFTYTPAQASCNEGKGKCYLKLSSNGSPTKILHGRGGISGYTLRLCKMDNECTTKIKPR

In the case of `CC(c1cnc(N2C[C@H]3C[C@H]3C2=O)c(F)c1)n1cc(NC(=O)c2nc(-c3c(C(F)F)ccc(Cl)c3F)cnc2CO)cn1` (single isomer, unassigned) [Example 205, 6-(3-Chloro-6-(difluoromethyl)-2-fluorophenyl)-N-(1-((S or R)-1-(5-fluoro-6-((1R,5S)-2-oxo-3-azabicyclo[3.1.0]hexan-3-yl)pyridin-3-yl)ethyl)-1H-pyrazol-4-yl)-3-(hydroxymethyl)pyrazine-2-carboxamide], the IC50 was 389 nM against human Factor XIa and 0.3 nM against Human plasma kallikrein.

Take `Cc1ncc(-c2c(C(F)F)ccc(Cl)c2F)nc1C(=O)Nc1cnn(C(C)c2ncc(N3C[C@H]4C[C@H]4C3=O)cc2F)c1` (single isomer, unassigned) [Example 137, 6-(3-Chloro-6-(difluoromethyl)-2-fluorophenyl)-N-(1-((S or R)-1-(3-fluoro-5-((1R,5S)-2-oxo-3-azabicyclo[3.1.0]hexan-3-yl)pyridin-2-yl)ethyl)-1H-pyrazol-4-yl)-3-methylpyrazine-2-carboxamide]: the IC50 against human Factor XIa is greater than 10000 nM; against Human plasma kallikrein, 7.7 nM.

In the case of `O=C(Nc1cnn(C(CO)c2cnc(N3CC4CC4C3=O)nc2)c1)c1cncc(-c2c(C(F)F)ccc(Cl)c2F)n1` (single isomer, unassigned) [Example 161, 6-(3-chloro-6-(difluoromethyl)-2-fluorophenyl)-N-(1-((S or R)-2-hydroxy-1-(2-((1S,5R or 1R,5S)-2-oxo-3-azabicyclo[3.1.0]hexan-3-yl)pyrimidin-5-yl)ethyl)-1H-pyrazol-4-yl)pyrazine-2-carboxamide], the concentration for half-maximal inhibition (IC50) on human Factor XIa is greater than 10000 nM; at Human plasma kallikrein, 26.7 nM.

With `CC(c1cnc(N2C[C@H]3C[C@H]3C2=S)nc1)n1cc(NC(=O)c2cncc(-c3c(C(F)F)ccc(Cl)c3F)n2)cn1` (single isomer, unassigned) [Example 31, 6-(3-Chloro-6-(difluoromethyl)-2-fluorophenyl)-N-(1-((S or R)-1-(2-((1R,5S)-2-thioxo-3-azabicyclo[3.1.0]hexan-3-yl)pyrimidin-5-yl)ethyl)-1H-pyrazol-4-yl)pyrazine-2-carboxamide], the results for the IC50 against human Factor XIa and on Human plasma kallikrein were greater than 10000 nM and 6.3 nM, respectively.

In the case of `Cc1cc([C@@H](C)n2cc(NC(=O)c3nc(-c4c(OC(F)F)ccc(Cl)c4F)cnc3CO)cn2)cnc1N1C[C@H]2C[C@H]2C1=O` [Example 227, 6-(3-Chloro-6-(difluoromethoxy)-2-fluorophenyl)-3-(hydroxymethyl)-N-(1-((R)-1-(5-methyl-6-((1R,5S)-2-oxo-3-azabicyclo[3.1.0]hexan-3-yl)pyridin-3-yl)ethyl)-1H-pyrazol-4-yl)pyrazine-2-carboxamide], the IC50 against human Factor XIa is 25 nM; against Human plasma kallikrein it was 0.6 nM.

Regarding `Cc1cc(N2C[C@H]3C[C@H]3C2=O)nnc1Cn1cc(NC(=O)c2nc(-c3c(C(F)F)ccc(Cl)c3F)cnc2C)cn1` [Example 84, 6-(3-Chloro-6-(difluoromethyl)-2-fluorophenyl)-3-methyl-N-(1-((4-methyl-6-((1R,5S)-2-oxo-3-azabicyclo[3.1.0]hexan-3-yl)pyridazin-3-yl)methyl)-1H-pyrazol-4-yl)pyrazine-2-carboxamide], the results for the IC50 against human Factor XIa and at Human plasma kallikrein were 5710 nM and 20.7 nM, respectively.

Take `Cc1nc(C(C)n2cc(NC(=O)c3cncc(-c4c(C(F)F)ccc(Cl)c4F)n3)cn2)ncc1N1C[C@H]2C[C@H]2C1=O` (single isomer, unassigned) [Example 3, 6-(3-Chloro-6-(difluoromethyl)-2-fluorophenyl)-N-(1-((S or R)-1-(4-methyl-5-((1R,5S)-2-oxo-3-azabicyclo[3.1.0]hexan-3-yl)pyrimidin-2-yl)ethyl)-1H-pyrazol-4-yl)pyrazine-2-carboxamide]: the half-maximal inhibitory concentration (IC50) is greater than 10000 nM against human Factor XIa and 1 nM at Human plasma kallikrein.

For `Cc1cc(N2C[C@H]3C[C@H]3C2=O)ccc1C(C)n1cc(NC(=O)c2cncc(-c3c(C(F)F)ccc(Cl)c3F)n2)cn1` (single isomer, unassigned) [Example 98, 6-(3-Chloro-6-(difluoromethyl)-2-fluorophenyl)-N-(1-((S or R)-1-(2-methyl-4-((1R,5S)-2-oxo-3-azabicyclo[3.1.0]hexan-3-yl)phenyl)ethyl)-1H-pyrazol-4-yl)pyrazine-2-carboxamide], the IC50 against human Factor XIa is greater than 10000 nM; at Human plasma kallikrein, 1.4 nM.

On to `Cc1cc(C(C)n2cc(NC(=O)c3cc(-c4c(C(F)F)ccc(Cl)c4F)nnc3C)cn2)cnc1N1C[C@H]2C[C@H]2C1=O` (single isomer, unassigned) [Example 121, 6-(3-Chloro-6-(difluoromethyl)-2-fluorophenyl)-3-methyl-N-(1-((S or R)-1-(5-methyl-6-((1R,5S)-2-oxo-3-azabicyclo[3.1.0]hexan-3-yl)pyridin-3-yl)ethyl)-1H-pyrazol-4-yl)pyridazine-4-carboxamide], for which the IC50 was greater than 10000 nM against human Factor XIa and 4.5 nM against Human plasma kallikrein.

As for `O=C(Nc1cnn(Cc2cnc(N3C[C@H]4C[C@H]4C3=O)nc2)c1)c1nc(-c2c(C(F)F)ccc(Cl)c2F)cnc1COC1CC1` [Example 116, 6-(3-Chloro-6-(difluoromethyl)-2-fluorophenyl)-3-(cyclopropoxymethyl)-N-(1-((2-((1R,5S)-2-oxo-3-azabicyclo[3.1.0]hexan-3-yl)pyrimidin-5-yl)methyl)-1H-pyrazol-4-yl)pyrazine-2-carboxamide], the values for the half-maximal inhibitory concentration (IC50) against human Factor XIa and against Human plasma kallikrein were 4380 nM and 19.1 nM, respectively.

Consider `Cc1c(C(C)n2cc(NC(=O)c3cncc(-c4c(C(F)F)ccc(Cl)c4F)n3)cn2)nnc(N2C[C@H]3C[C@H]3C2=O)c1C` (single isomer, unassigned) [Example 111, 6-(3-Chloro-6-(difluoromethyl)-2-fluorophenyl)-N-(1-((R or S)-1-(4,5-dimethyl-6-((1R,5S)-2-oxo-3-azabicyclo[3.1.0]hexan-3-yl)pyridazin-3-yl)ethyl)-1H-pyrazol-4-yl)pyrazine-2-carboxamide], for which the IC50 against human Factor XIa is 108 nM; against Human plasma kallikrein it was 0.4 nM.

In the case of `Cc1nc(N2C[C@H]3C[C@H]3C2=O)ncc1C(C)n1cc(NC(=O)c2nc(-c3c(C(F)F)ccc(Cl)c3F)cnc2C)cn1` (single isomer, unassigned) [Example 43], the half-inhibitory concentration (IC50) at human Factor XIa was determined as 4510 nM; on Human plasma kallikrein, 73.4 nM.

As for `Cc1cc(N2C[C@H]3C[C@H]3C2=O)ncc1Cn1cc(NC(=O)c2cncc(-c3c(C(F)F)ccc(Cl)c3F)n2)cn1` [Example 57, 6-(3-Chloro-6-(difluoromethyl)-2-fluorophenyl)-N-(1-((4-methyl-6-((1R,5S)-2-oxo-3-azabicyclo[3.1.0]hexan-3-yl)pyridin-3-yl)methyl)-1H-pyrazol-4-yl)pyrazine-2-carboxamide], the values for the IC50 at human Factor XIa and against Human plasma kallikrein were 1890 nM and 4.9 nM, respectively.

Turning to `CC(c1ccc(N2CC3CC3C2=O)nc1)n1cc(NC(=O)c2cncc(-c3c(C(F)F)ccc(Cl)c3F)n2)cn1` (single isomer, unassigned) [Example 10, 6-(3-Chloro-6-(difluoromethyl)-2-fluorophenyl)-N-(1-((S or R)-1-(6-((1R,5S or 1S,5R)-2-oxo-3-azabicyclo[3.1.0]hexan-3-yl)pyridin-3-yl)ethyl)-1H-pyrazol-4-yl)pyrazine-2-carboxamide], the concentration for half-maximal inhibition (IC50) against human Factor XIa is greater than 10000 nM; against Human plasma kallikrein, 16.8 nM.

Consider `Cc1nc(N2C[C@H]3C[C@H]3C2=O)ncc1C(C)n1cc(NC(=O)c2nc(-c3c(C(F)F)ccc(Cl)c3F)cc(=O)n2C)cn1` (single isomer, unassigned) [Example 80, 4-(3-Chloro-6-(difluoromethyl)-2-fluorophenyl)-1-methyl-N-(1-((R or S)-1-(4-methyl-2-((1R,5S)-2-oxo-3-azabicyclo[3.1.0]hexan-3-yl)pyrimidin-5-yl)ethyl)-1H-pyrazol-4-yl)-6-oxo-1,6-dihydropyrimidine-2-carboxamide], for which the half-inhibitory concentration (IC50) on human Factor XIa is 284 nM; at Human plasma kallikrein, 25.3 nM.

Regarding `Cc1cc(C(C)n2cc(NC(=O)c3nc(-c4c(C(F)F)ccc(Cl)c4F)cnc3C(C)O)cn2)cnc1N1C[C@H]2C[C@H]2C1=O` (single isomer, unassigned) [Example 210, 6-(3-Chloro-6-(difluoromethyl)-2-fluorophenyl)-3-((S or R)-1-hydroxyethyl)-N-(1-((S or R)-1-(5-methyl-6-((1R,5S)-2-oxo-3-azabicyclo[3.1.0]hexan-3-yl)pyridin-3-yl)ethyl)-1H-pyrazol-4-yl)pyrazine-2-carboxamide], the IC50 was 186 nM at human Factor XIa and 0.4 nM at Human plasma kallikrein.
